# How the values were obtained:
# Burkholderia cepacia = assay: Single-point BisEDT-antibiotic combination FICI; assay type: cell-based; conditions: Bcep 1756
# Bukholderia multivorans = assay: Single-point BisEDT-antibiotic combination FICI; assay type: cell-based; conditions: Bmult 5665
# [1] = system: B. cepacia (B. multivorans, B. cenocepacia); assay: MIC and FIC index, tobramycin + BisEDT; assay type: cell-based, Burkholderia cepacia; conditions: 0.4 μg/ml BisEDT
# S. aureus = assay: Broth dilution MIC/MBC, BT-antibiotic combinations; assay type: cell-based, Staphylococcus aureus; conditions: Staphylococcus aureus, Tobramycin resistant strains table, S. aureus SA-29213
# Description: Materials & Methods. Susceptibility studies were performed by broth dilution in 96-well tissue culture plates (Nalge Nunc International, Denmark) in accordance with NCCLS protocols (National Committee for Clinical Laboratory Standards. (1997). Methods for Dilution Antimicrobial Susceptibility Tests for Bacteria that Grow Aerobically: Approved Standard M7-A2 and Informational Supplement M100-S10. NCCLS, Wayne, Pa., USA).
# Briefly, overnight bacterial cultures were used to prepare 0.5 McFarland standard suspensions, which were further diluted 1:50 (˜2×10^6 cfu/mL) in cation-adjusted Mueller-Hinton broth medium (BBL, Cockeysville, Md., USA). BTs (prepared as described above) and antibiotics were added at incremental concentrations, keeping the final volume constant at 0.2 mL. Cultures were incubated for 24 h at 37° C. and turbidity was assessed by absorption at 630 nm using an ELISA plate reader (Biotek Instruments, Winooski, Vt., USA) according to the manufacturer's recommendations. […] Viable bacterial counts (cfu/mL) were determined by standard plating on nutrient agar.
# The checkerboard method was used to assess the activity of antimicrobial combinations. The fractional inhibitory concentration index (FICI) and the fractional bactericidal concentration index (FBCI) were calculated, according to Eliopoulos et al. (Eliopoulos and Moellering, (1996) Antimicrobial combinations. In Antibiotics in Laboratory Medicine (Lorian, V., Ed.), pp. 330-96, Williams and Wilkins, Baltimore, Md., USA). Synergy was defined as an FICI or FBCI index of […], no interaction at >0.5-4 and antagonism at >4 (Odds, F C (2003) Synergy, antagonism, and what the chequerboard puts between them. Journal of Antimicrobial Chemotherapy 52:1). Synergy was also defined conventionally as ≧4-fold decrease in antibiotic concentration.
# Pseudomonas aeruginosa = assay: Single-point BisEDT-antibiotic combination FICI; assay type: cell-based; conditions: PA 1380
# Escherichia coli = assay: Single-point BisEDT-antibiotic combination FICI; assay type: cell-based; conditions: EC 2232
# Acinetobacter baumanii = assay: Single-point BisEDT-antibiotic combination FICI; assay type: cell-based; conditions: Abau 2594
# [2] = system: Staphylococcus aureus (SA, MRSA); assay: Single-point BisEDT-antibiotic combination FICI; assay type: cell-based
# Klebsiella pneumoniae = assay: Single-point BisEDT-antibiotic combination FICI; assay type: cell-based; conditions: KP 1231
# Enterococcus faecalis = assay: Single-point BisEDT-antibiotic combination FICI; assay type: cell-based; conditions: E Fc 3121
# [3] = system: Streptococcus pneumoniae (SP, PRSP); assay: Single-point BisEDT-antibiotic combination FICI; conditions: PRSP 5348
# resistant E. coli = assay: MIC in Mueller-Hinton II broth, antibiotic + BisEDT; assay type: cell-based, Escherichia coli
# From the text: Chloramphenicol and ampicillin resistant Escherichia coli were made sensitive to these drugs by the addition of subMIC BisEDT (Table 24).
# Tetracycline resistant Escherichia coli were made sensitive to doxycycline by the addition of subMIC BisEDT (Table 25).
# [4] = tobramycin-resistant Burkholderia cepacia
compound,measurement,setting,value
NC[C@H]1O[C@H](O[C@H]2[C@H](O)[C@@H](O[C@H]3O[C@H](CO)[C@@H](O)[C@H](N)[C@H]3O)[C@H](N)C[C@@H]2N)[C@H](N)C[C@@H]1O [Tobramycin],"FICI, single-point BisEDT-antibiotic combination",Burkholderia cepacia,0.91
same,"FICI, single-point BisEDT-antibiotic combination",Bukholderia multivorans,0.67
same,Isolates rendered tobramycin sensitive,[1],seven of 10
same,Fold reduction of tobramycin MIC90,[1]; [4],10 fold
same,mean FIC,[1]; [4],0.48
same,MBC,S. aureus; read-out: NN MBC,2 µg/mL
same,MIC,S. aureus; read-out: NN MIC,2 µg/mL
same,"FICI, single-point BisEDT-antibiotic combination",Pseudomonas aeruginosa,1.29
same,"FICI, single-point BisEDT-antibiotic combination",Escherichia coli,0.96
same,"FICI, single-point BisEDT-antibiotic combination",Acinetobacter baumanii,1.12
same,"FICI, single-point BisEDT-antibiotic combination",[2]; MRSA 773,0.78
same,"FICI, single-point BisEDT-antibiotic combination",[2]; SA 100,0.73
same,"FICI, single-point BisEDT-antibiotic combination",Klebsiella pneumoniae,0.87
same,"FICI, single-point BisEDT-antibiotic combination",Enterococcus faecalis,0.47
same,"FICI, single-point BisEDT-antibiotic combination",[3],0.57
"C[C@H]1c2cccc(O)c2C(=O)C2=C(O)[C@]3(O)C(=O)C(C(N)=O)=C(O)[C@@H](N(C)C)[C@@H]3[C@@H](O)[C@@H]21 [DOX, doxycycline]","FIC, doxycycline + subMIC BisEDT",resistant E. coli; E. coli TET M and TET D strains,0.5
"CC1(C)S[C@@H]2[C@H](NC(=O)[C@H](N)c3ccccc3)C(=O)N2[C@H]1C(=O)O [AM, ampicillin]",MIC,"resistant E. coli; Escherichia coli, read-out: Drug + BE MIC, Chloramphenicol/Ampicillin resistant E. coli, BE 0.33 μg/ml",49 µg/mL

# Source: patent US9408393B2, “Bismuth-thiols as antiseptics for agricultural, industrial and other uses” (Microbion Corporation, priority 2010, dated 2016)
